Data set [1] is described as follows: Study S.241.1.104: Ortho Tri-Cyclen pharmacokinetics with cilansetron 2 mg TID. The note with it: for Cmin / Cmax / AUC / half-life: arith. mean; for AUC: read-out: AUC(0-τ); for half-life: read-out: T½ (converted). The data set is classed as in vivo, human. The source says:
The effects of concomitant administration of cilansetron and a commonly used oral contraceptive, Ortho Tri-Cyclen (ORC), on the pharmacokinetics and pharmacodynamics of ORC and the pharmacokinetics of cilansetron has been evaluated in a randomized, double-blind, placebo-controlled, multiple-dose, 2-period, crossover study in 20 healthy, female subjects, aged 19 to 42 years. Subjects received the following two treatments during each of two 28-day study periods (2 ORC cycles) in a randomized, crossover fashion: Treatment B (reference treatment)−ORC on Days 1-28 (standard ORC cycle)+placebo TID on Days 14-20 and a single dose of placebo on Day 21; Treatment A (test treatment)−ORC on Days 1-28 (standard ORC cycle)+cilansetron 2 mg TID on Days 14-20 and a single dose of cilansetron 2 mg on Day 21. […] For evaluation of the effect of concomitant cilansetron on the pharamacodynamics of ORC, blood samples were collected prior to morning dosing on Days 18, 19, 20, 26, 27, and 28 for measurement of serum progesterone (PG), luteinizing hormone (LH), and follicle stimulating hormone (FSH) concentrations, and untransformed data were compared statistically between treatments.

Data set [2] concerns cilansetron metabolism (ketoconazole 25 μM used as general inhibitor). The experiment in a line: in vitro. Conditions: human, human hepatic microsomes, probe cilansetron (100 μM), overall metabolism.
Data set [3] has as its system CYP3A4 (cilansetron metabolism). In words: in vitro. The note with it: human, human hepatic microsomes, probe cilansetron (100 μM), overall metabolism.
Data set [4] concerns CYP3A4 (formation of 4-hydroxy metabolites of cilansetron). The experiment in a line: in vitro. Conditions: human, human hepatic microsomes, probe cilansetron (100 μM), formation of the 4-hydroxy metabolites.
Data set [5] concerns patients with malignant tumors. In words: Study K.241.5017: cisplatin-induced nausea and vomiting. Type of data set: in vivo, human. Conditions: IV 8 mg TID. How it is done: (§1) The effect of cilansetron on nausea and vomiting has been studied in 2 clinical studies in cancer patients. Both studies were randomized, singleblind, positive-controlled, parallel-group, pilot studies in male and female patients with malignant tumors, to investigate the effect of cilansetron on cytostatic-induced nausea and vomiting. In both studies, patients were on their first cycle of chemotherapy and were being treated with cisplatin (275 mg/m2 as a single dose in Study S.24 1.2.10 1 and […] for 5 days in Study K.24 1 S O 17). Patients in Study S.24 1.2.10 1 were aged 40-74 years (ITT population=16) and patients in Study K.24 1 S O 17 were aged 39-74 years (ITT population=19). In both studies, patients were randomized to receive either […] or IV ondansetron 8 mg TID for 1 day (Study S.241.2.101) or 5 days (Study K.2415017), corresponding to the day(s) of their cisplatin administration. If nausea and vomiting were completely controlled on a treatment day, the second and/or third doses of cilansetron or ondansetron could be omitted on that day. The primary efficacy parameter in both studies was the combination of the occurrence of vomiting and the severity of nausea, with a responder being defined as a patient with no vomiting and not more than mild nausea during the treatment day(s). […]

Data set [6] relates to patients with malignant tumors. In words: Study S.241.2.101: cisplatin-induced nausea and vomiting. The data set is classed as in vivo, human. The note with it: IV 8 mg TID. How it is done:
as §1

The mark [7] stands for this setting: female, human, plasma, oral, ORC + Cilansetron 2 mg TID, Day 21.
Where [8] appears, read: female, human, plasma, oral, ORC + Placebo, Day 21.

Where two headings read alike, the source gives them in different places.

Regarding `C#C[C@]1(O)CC[C@H]2[C@@H]3CCc4cc(O)ccc4[C@H]3CC[C@@]21C` [EE, ethinyl estradiol], the Cmin in data set [1] (ORC + Cilansetron 2 mg TID, Day 21) was found to be 0.022 ng/mL. In data set [1] (ORC + Placebo, Day 21), the Cmin is reported as 0.024 ng/mL. Further, in data set [1] (setting [7]), the peak concentration (Cmax) was 0.144 ng/mL, the AUC was 1.21 ng·h/mL and the half-life was 20.9 h. For the same molecule, in data set [1] (female, human, plasma, oral, ORC + Cilansetron 2 mg TID, Day 21, median), the Tmax is 1.25 h. For the same molecule, in data set [1] (setting [8]), the Cmax is 0.156 ng/mL, the AUC came to 1.32 ng·h/mL and the half-life is 21.2 h. For the same molecule, in data set [1] (in vivo), the “Mean AUC(0-τ) decrease with concomitant cilansetron” value is 10% and the “Mean Cmax decrease with concomitant cilansetron” value is 8%.

For `CC(=O)N1CCN(c2ccc(OCC3COC(Cn4ccnc4)(c4ccc(Cl)cc4Cl)O3)cc2)CC1` (stereo not shown) [ketoconazole], the inhibition at 25 μM in data set [2] was determined as 93%. The inhibition at 1 μM in data set [3] is around 70%; in data set [4] it was 47%.

For the molecule `Cc1nccn1CC1CCc2c(c3ccccc3n2C)C1=O` (stereo not shown) [ondansetron, reference compound], the Response rate in data set [5] is listed as 60.0%; in data set [6], 25.0%.

What is called Cmax is the highest concentration seen after dosing. The AUC is the area under the concentration-time curve, a measure of exposure. Broadly, the Tmax is the time at which the peak concentration occurs. Usually inhibition stands for the relative decrease from the control value, in per cent.

The values are drawn from patent US20090176817A1, “Method of Treatment of Diarrhea-Predominant Irritable Bowel Syndrome in a Subject” (priority 2005, published 2009).
